# Data: patent US20050255568A1, “Methods and compositions for amino acid production” (priority 2003, published 2005)
# Legend:
# [1] = molecular target: T1, O-Acetylhomoserine sulfhydrylase (MetY) (Corynebacterium glutamicum, UniProt Q79VI4); conditions: cited from earlier work
# T1 sequence (Q79VI4 1-437): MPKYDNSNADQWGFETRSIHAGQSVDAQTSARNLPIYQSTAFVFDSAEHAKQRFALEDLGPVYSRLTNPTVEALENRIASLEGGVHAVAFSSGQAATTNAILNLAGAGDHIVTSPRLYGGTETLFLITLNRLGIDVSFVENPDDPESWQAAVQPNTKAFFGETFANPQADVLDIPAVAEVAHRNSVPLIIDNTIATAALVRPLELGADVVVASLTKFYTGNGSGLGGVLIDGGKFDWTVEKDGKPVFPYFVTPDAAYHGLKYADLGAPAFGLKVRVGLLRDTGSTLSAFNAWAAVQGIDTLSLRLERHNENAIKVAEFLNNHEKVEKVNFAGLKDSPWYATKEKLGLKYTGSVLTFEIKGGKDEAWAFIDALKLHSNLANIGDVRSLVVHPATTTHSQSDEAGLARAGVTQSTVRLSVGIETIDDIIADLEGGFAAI
# C. glutamicum MetA = molecular target: T2, C. glutamicum MetA (Corynebacterium glutamicum, UniProt O68640); type: biochemical
# T2 construct: crude protein extracts derived from C. glutamicum strains MA-442 and MA-449 which contain both endogenous and episomal C. glutamicum MetA and MetY genes; expressed in transfected cells; host or cells: C. glutamicum MA-442 (MA-428 derivative of ATCC 13032) carrying episomal plasmid MB-4135 (lacIQ-trcRBS, C. glutamicum metA-RBS-metY, both wild type); crude extract
# T2 sequence (O68640 1-377): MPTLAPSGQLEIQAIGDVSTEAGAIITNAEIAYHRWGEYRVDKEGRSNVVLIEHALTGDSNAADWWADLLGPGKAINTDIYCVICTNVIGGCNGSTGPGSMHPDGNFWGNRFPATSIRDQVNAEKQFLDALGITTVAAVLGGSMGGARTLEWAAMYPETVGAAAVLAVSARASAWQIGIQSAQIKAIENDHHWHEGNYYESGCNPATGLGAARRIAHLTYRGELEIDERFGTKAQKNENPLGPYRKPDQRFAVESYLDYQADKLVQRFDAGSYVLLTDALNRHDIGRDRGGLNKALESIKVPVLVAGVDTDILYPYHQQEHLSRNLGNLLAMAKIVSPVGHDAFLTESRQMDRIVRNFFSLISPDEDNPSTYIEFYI
# Procedure: MetA activity in C. glutamicum expressing endogenous and episomal metA genes was determined. MetA activity was assayed in crude protein extracts using a protocol described by Kredich and Tomkins (J. Biol. Chem.241(21):4955-4965, 1966). […] Briefly, 1 μg of protein extract was added to a microtiter plate. Reaction mix (250 μl; 100 mM tris-HCl pH 7.5, 2mM 5,5′-Dithiobis(2-nitrobenzoic acid) (DTN), 2 mM sodium EDTA, 2 mM acetyl CoA, 2 mM homoserine) was added to each well of the microtiter plate. In the course of the reactions, MetA activity liberates CoA from acetyl-CoA. A disulfide interchange occurs between the CoA and DTN to produce thionitrobenzoic acid. The production of thionitrobenzoic acid is followed spectrophotometrically. Absorbance at 412 nm was measured every 5 minutes over a period of 30 minutes. A well without protein extract was included as a control. […] Inhibitors were added directly to the reaction mix before it was added to the protein extract. […] Experiments were performed in the presence and absence of IPTG that induces expression of the plasmid borne MetA and MetY genes.
smiles,measurement,setting,value
CC(=O)OC[C@H](N)C(=O)O [O-acetylserine],MetY enzyme activity (in words),[1],inhibited
"C[S+](CC[C@H](N)C(=O)[O-])C[C@H]1O[C@@H](n2cnc3c(N)ncnc32)[C@H](O)[C@@H]1O (stereo partly drawn) [S-AM, S-adenosyl methionine]",MetA activity of MA-442 extracts in the presence of S-AM,C. glutamicum MetA; 0.2 mM S-AM,reduced
N[C@@H](CCO)C(=O)O [homoserine],MetY enzyme activity (in words),[1],inhibited
CSCC[C@H](N)C(=O)O [methionine],MetA activity of MA-442 extracts in the presence of methionine,C. glutamicum MetA; 5 mM methionine,reduced
same,reduction in MetY enzyme activity,"[1]; 0.5 mM methionine, combined allosteric regulation and repression",99%
same,MetY enzyme activity (in words),[1],inhibited
